Experimental data as given in ChEMBL document CHEMBL4330090, “The effect of replacing the ester bond with an amide bond and of overall stereochemistry on the activity of daptomycin” (2019).
≈ marks a conversion by molar mass, not a printed value. Calls of active or inactive are those of the source. The rule behind the calls is not given here.

Legend:
[1] = tested on: Bacillus subtilis; assay: Antibacterial activity against Bacillus subtilis 1046 in presence of 5 mM Ca2+; type: functional
[2] = tested on: Lipid bilayer; assay: Binding affinity to DMPC/DMPG large unilamellar vesicles assessed as increase in intrinsic fluorescence in presence of >10 mM Ca2+ by fluorescence based assay
[3] = tested on: Bacillus subtilis; assay: Antibacterial activity against Bacillus subtilis 1046 in presence of 1.25 mM Ca2+; type: functional
[4] = tested on: Lipid bilayer; assay: Binding affinity to DMPC/DMPG large unilamellar vesicles assessed as increase in intrinsic fluorescence in presence of >0.1 mM Ca2+ by fluorescence based assay
[5] = tested on: Staphylococcus aureus; assay: Antibacterial activity against Staphylococcus aureus; type: functional
[6] = tested on: Lipid bilayer; assay: Binding affinity to DMPC/DMPG large unilamellar vesicles assessed as increase in intrinsic fluorescence in presence of >1 mM Ca2+ by fluorescence based assay
[7] = tested on: Lipid bilayer; assay: Binding affinity to DMPC/DMPG large unilamellar vesicles assessed as increase in intrinsic fluorescence in presence of 1 mM Ca2+ by fluorescence based assay
[8] = tested on: Lipid bilayer; assay: Binding affinity to DMPC/DMPG large unilamellar vesicles assessed as increase in intrinsic fluorescence in presence of 10 mM Ca2+ by fluorescence based assay

| MIC [1] [µg/mL] | Activity [2] | MIC [3] [µg/mL] | Activity [6] | Activity [7] | Activity [8] | SMILES | Activity [4] | MIC [5] [µg/mL] |
| --- | --- | --- | --- | --- | --- | --- | --- | --- |
| 10 | Active | > 100 | – | – | – | CCCCCCCCCC(=O)N[C@@H](Cc1c[nH]c2ccccc12)C(=O)N[C@@H](CC(N)=O)C(=O)N[C@@H](CC(=O)O)C(=O)N[C@@H]1C(=O)NCC(=O)N[C@@H](CCCCN)C(=O)N[C@@H](CC(=O)O)C(=O)N[C@H](C)C(=O)N[C@@H](CC(=O)O)C(=O)NCC(=O)N[C@H](CO)C(=O)N[C@@H](CCC(=O)O)C(=O)N[C@@H](Cc2c[nH]c3ccccc23)C(=O)N[C@H]1C | – | – |
| – | – | – | – | – | – | CCCCCCCCCC(=O)N[C@H](Cc1c[nH]c2ccccc12)C(=O)N[C@H](CC(N)=O)C(=O)N[C@@H](CC(=O)O)C(=O)N[C@H]1CNC(=O)[C@@H](Cc2c[nH]c3ccccc23)NC(=O)[C@@H](CCC(=O)O)NC(=O)[C@H](CO)NC(=O)CNC(=O)[C@@H](CC(=O)O)NC(=O)[C@H](C)NC(=O)[C@@H](CC(=O)O)NC(=O)[C@@H](CCCCN)NC(=O)CNC1=O | – | 160 (≈ 99.9 µM) |
| 10 | – | 50 | Active | – | – | CCCCCCCCCC(=O)N[C@@H](Cc1c[nH]c2ccccc12)C(=O)N[C@@H](CC(N)=O)C(=O)N[C@@H](CC(=O)O)C(=O)N[C@@H]1C(=O)NCC(=O)N[C@@H](CCCCN)C(=O)N[C@@H](CC(=O)O)C(=O)N[C@H](C)C(=O)N[C@@H](CC(=O)O)C(=O)NCC(=O)N[C@H](CO)C(=O)N[C@@H](CCC(=O)O)C(=O)N[C@@H](Cc2c[nH]c3ccccc23)C(=O)N[C@@H]1C | – | – |
| 100 | – | > 200 | – | Active | Active | CCCCCCCCCC(=O)N[C@H](Cc1c[nH]c2ccccc12)C(=O)N[C@H](CC(N)=O)C(=O)N[C@@H](CC(=O)O)C(=O)N[C@H]1C(=O)NCC(=O)N[C@H](CCCCN)C(=O)N[C@H](CC(=O)O)C(=O)N[C@@H](C)C(=O)N[C@H](CC(=O)O)C(=O)NCC(=O)N[C@@H](CO)C(=O)N[C@H](CCC(=O)O)C(=O)N[C@H](Cc2c[nH]c3ccccc23)C(=O)O[C@H]1C | – | – |
| 0.5 | – | 1.5 | – | – | – | CCCCCCCCCC(=O)N[C@@H](Cc1c[nH]c2ccccc12)C(=O)N[C@@H](CC(N)=O)C(=O)N[C@@H](CC(=O)O)C(=O)N[C@@H]1C(=O)NCC(=O)N[C@@H](CCCCN)C(=O)N[C@@H](CC(=O)O)C(=O)N[C@H](C)C(=O)N[C@@H](CC(=O)O)C(=O)NCC(=O)N[C@H](CO)C(=O)N[C@@H](CCC(=O)O)C(=O)N[C@@H](Cc2c[nH]c3ccccc23)C(=O)O[C@@H]1C | Active | – |

| SMILES | MIC [1] [µg/mL] | Activity [2] | MIC [3] [µg/mL] | Activity [6] | Activity [7] | Activity [8] | Activity [4] | MIC [5] [µg/mL] |
| --- | --- | --- | --- | --- | --- | --- | --- | --- |
| CCCCCCCCCC(=O)N[C@@H](Cc1c[nH]c2ccccc12)C(=O)N[C@H](CC(N)=O)C(=O)N[C@@H](CC(=O)O)C(=O)N[C@@H]1C(=O)NCC(=O)N[C@@H](CCCN)C(=O)N[C@@H](CC(=O)O)C(=O)N[C@H](C)C(=O)N[C@@H](CC(=O)O)C(=O)NCC(=O)N[C@H](CO)C(=O)N[C@@H]([C@H](C)CC(=O)O)C(=O)N[C@@H](CC(=O)c2ccccc2N)C(=O)O[C@@H]1C | 0.5 | – | 0.75 | – | – | – | Active | 1.9 (≈ 1.17 µM) |
